Results taken from patent US20240398831A1, “COMPOSITIONS COMPRISING SMALL MOLECULE REGULATORS OF TUMOR IMMUNITY AND METHODS OF USING SAME” (Duke University, priority 2021, published 2024).

Experiments:
B16F10 cells = experiment: Proliferation assay; assay type: cell-based, mouse; settings: E2 0.01-1 nM, 3 days
Description: ERα+ MCF7 cells served as a positive control. Cells were treated as either mock transfected or transfected with scrambled control or three different siRNA targeting Esr1. […] Esr1 was first normalized to Rplp0 and then Esr1 knockdown samples were normalized to a non-targeting control. RNA was collected from both cell lines after 48 hr of siRNA transfection. […] Mouse ovary served as a positive control. […] ERα+MCF7 cells served as a positive control (FIG. 5E, left). […] Data are expressed as individual data points and represented as mean±S.E.M. Significance was calculated by Student's t test or two-way ANOVA (FIGS. 5E-5F), followed by Bonferroni's multiple correction (**p<0.0001).
Proliferation assay. For proliferation assays, B16F10 cells were plated in DMEM media (without phenol red) supplemented with 10% charcoal-stripped FBS. Cells were plated at a concentration of 1000 cells/well of a 96-well plate for 2 days in 200 μL of media. […] Cells were collected every 24 hr by discarding the media from the plates. Plates were frozen at −80° C. […] Cell numbers were determined by the addition of 100 μL of (conc.) DNA dye […] dye (Sigma Cat #94403) in TNE buffer (10 mM Tris, 2M NaCl and 1 mM EDTA) and the fluorescence was read at an excitation of 360 nm and an emission at 465 nm using a microplate reader.

iBP tumors = experiment: iBP autochthonous melanoma mouse model (tumor growth, flow cytometry); assay type: in vivo; settings: E2 vs placebo
Text: Mice. C57BL/BJ, LysMCre (B6.129P2-Lyz2^tm1(cre)lfo/J) Pmel (B6.Cg-Thy1^a/Cy Tg(TcraTcrb)8Rest/J) mice were from Jackson Laboratories (Bar Harbor, ME). Age matched mice were used for all the studies. LysMCre mice were bred to Esr1^f/f mice to generate Esr1^f/f; LysMCre and littermate control LysMCre and Esr1^f/f mice. iBP (Braf^V600E/WT, Pten^f/fmTyrCreERT2) mice were generated by crossing breeders Braf^WT/WT/Pten^f/f, mTyrCreERT2 mice to BRAF^V600E, Pten^f/f mice. The mice were housed in secure animal facility cages in 12 hour light:dark cycles at temperature around 25° C. and 70% humidity. Mice had access to ad-libitum food and water. NSG (NOD.Cg-Prkd^scid Il2rg^tm1Wjl/SzJ) mice were from the Division of Laboratory Animal Resources (Duke University). The NSG animals were fed with a GL3 diet and were kept in pathogen free conditions.
Tumor models and cells. The mouse B16F10 and Yumm5.2 cell lines were purchased from American Type Culture Collection (ATCC, Manassas, VA). The mouse melanoma cell line BPD6 was established from iBP as described elsewhere (Zhao et al., Immunity 2018, 48, 147-160). B16F10 and BPD6 cells were maintained in Dulbecco's Modified Eagle's Medium (DMEM) supplemented with 8% fetal bovine serum (FBS), 0.1 mM non-essential amino acids (NEAA) and 1 mM sodium pyruvate. YuMM5.2 cells were maintained in DMEM/F12 media supplemented with 10% FBS. The cells were replated 3 times/week at a confluency of 1:10 and were kept in a 37° C. incubator at 5% CO2. For subcutaneous tumor models B16F10 (5×10^4 or 1×10^5), YuMM5.2 (5×10^5), and BPD6 (5×10^5) cells were injected into the right flank of the mice. For iBP mice, tumors were induced with a single intradermal dose of 4-hydroxytamoxifen in DMSO (150 μg/mouse). Tumors were measured thrice weekly using an electronic caliper. Tumor volumes were calculated by the formula V=L×(W×W)/2. For iBP mouse tumors, volumes were calculated by the formula V=L×B×H. For tumor growth rate studies mice were euthanized when the tumors reached a maximum size of 2000 mm^3.
Ovarlectomy and subcutaneous pellet Insertion. Ovariectomy was performed as previously described (Nelson et al., Science 2013, 342, 1094-1098). Eight days prior to tumor inoculation, 7 weeks old C57BL/6J or 5 weeks old (iBP) female mice were subjected to ovariectomy or sham surgery. Mice were anesthetized in an inhalation chamber (2% Isoflurane) and maintained in half the dose of isoflurane (1%) via nose cone throughout the surgical process. Prior to surgery, mice were administered a 5 mg/kg dose of carprofen subcutaneously. The area below the ribs was shaved with an electronic razor and the skin was sterilized by rubbing with betadine and alcohol (3× alternating). A horizontal incision was made through the skin above the ovary fat pad, followed by a vertical incision through the abdominal muscle wall. The ovary was externalized and removed using a cauterizing scissors (or returned if sham). Fat pad was replaced, and muscle walls were opposed and sutured (1-2 stitches). Following suturing, 1 drop of bupivacaine (0.25%) was added on top of the incision site. The skin was opposed, and a wound clip was placed on the incision site. This was repeated for the other ovary. The mouse was then removed from anesthesia and kept in a clean cage and monitored until conscious. The mice were monitored for recovery for 10 days.
Single cell isolation from tumors. Tumors were isolated, minced on a petri dish in media (DMEM+5% FBS), and then enzymatically digested by the addition of 100 μg/mL DNase I (D5025-150KU, Sigma-Aldrich) and 1 mg/mL collagenase (Collagenase A, Cat #10103586001, Sigma-Aldrich) for 30 mins-45 mins. For iBP models, isolated tumors were sliced into large chunks and subjected to mechanical digestion in a gentleMACS Dissociator for 30 seconds twice. […]

17β-estradiol [E2]
proliferation (B16F10 cells): nor did it support proliferation | tumor growth (iBP tumors; ovariectomized iBP mice): accelerated tumor growth | CD3+ T cell population, tumor-infiltrating (iBP tumors; flow cytometry): overall decrease | infiltration of immune cells (CD45+) (iBP tumors; flow cytometry): not impacted by treatment | number of monocytes (iBP tumors; flow cytometry): trend was observed towards an increase | ratio of intratumoral M1 (MHCII^hi CD206−) to M2 (MHCII^lo CD206+/hi) macrophages (iBP tumors; flow cytometry): decreases | total number of F480+ macrophages (iBP tumors; flow cytometry): remaining unchanged | CD4+ T cells, tumor-infiltrating (iBP tumors; flow cytometry, FIGS. 16B-16C show B16F10 and YuMM5.2): no significant changes
